Activity calls are given as the source filed them.
What was measured:
[1] = target: T1, Short transient receptor potential channel 4 (Mus musculus, UniProt Q9QUQ5); assay: block of DAMGO-driven TRPC4 calcium entry – cell-based, HEK293 TRPC4/mu-opioid, Fluo-4 calcium, dose response (AID 434942); format: functional;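 also: potency of inhibitors blocking the TRPC4 calcium response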
T1 sequence (Q9QUQ5 whole entry): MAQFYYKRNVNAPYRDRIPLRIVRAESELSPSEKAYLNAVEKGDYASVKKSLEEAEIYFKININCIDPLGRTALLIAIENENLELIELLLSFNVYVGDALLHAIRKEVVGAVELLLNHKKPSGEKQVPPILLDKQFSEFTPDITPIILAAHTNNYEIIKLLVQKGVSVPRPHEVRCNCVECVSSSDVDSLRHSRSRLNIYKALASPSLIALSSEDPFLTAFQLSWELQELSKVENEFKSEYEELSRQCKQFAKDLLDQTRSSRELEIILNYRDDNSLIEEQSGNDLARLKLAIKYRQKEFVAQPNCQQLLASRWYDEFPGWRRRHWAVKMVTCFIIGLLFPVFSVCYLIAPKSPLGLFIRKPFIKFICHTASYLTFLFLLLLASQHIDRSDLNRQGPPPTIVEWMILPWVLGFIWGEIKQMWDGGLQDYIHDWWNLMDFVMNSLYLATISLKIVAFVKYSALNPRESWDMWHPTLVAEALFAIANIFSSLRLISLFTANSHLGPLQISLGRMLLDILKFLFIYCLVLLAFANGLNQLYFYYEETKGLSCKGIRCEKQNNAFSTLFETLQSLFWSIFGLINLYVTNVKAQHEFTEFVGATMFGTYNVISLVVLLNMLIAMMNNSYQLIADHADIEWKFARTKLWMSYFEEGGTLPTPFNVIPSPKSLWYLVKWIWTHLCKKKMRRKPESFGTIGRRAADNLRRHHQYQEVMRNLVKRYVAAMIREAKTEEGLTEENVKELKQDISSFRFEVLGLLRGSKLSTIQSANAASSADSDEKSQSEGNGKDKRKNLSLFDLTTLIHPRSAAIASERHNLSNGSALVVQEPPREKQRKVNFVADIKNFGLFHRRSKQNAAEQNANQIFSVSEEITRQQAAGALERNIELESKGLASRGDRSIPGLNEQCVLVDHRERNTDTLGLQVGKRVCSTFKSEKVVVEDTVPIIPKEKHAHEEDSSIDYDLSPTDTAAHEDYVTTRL

Leucine aminopeptidase = target: T2, Leucine aminopeptidase (Plasmodium falciparum 3D7, UniProt Q8IL11); assay: P. falciparum M17LAP inhibitors, primary screen, biochemical, fluorogenic H-Leu-NHMec substrate, 1536-well (AID 1619); format: functional
T2 sequence (Q8IL11 whole entry): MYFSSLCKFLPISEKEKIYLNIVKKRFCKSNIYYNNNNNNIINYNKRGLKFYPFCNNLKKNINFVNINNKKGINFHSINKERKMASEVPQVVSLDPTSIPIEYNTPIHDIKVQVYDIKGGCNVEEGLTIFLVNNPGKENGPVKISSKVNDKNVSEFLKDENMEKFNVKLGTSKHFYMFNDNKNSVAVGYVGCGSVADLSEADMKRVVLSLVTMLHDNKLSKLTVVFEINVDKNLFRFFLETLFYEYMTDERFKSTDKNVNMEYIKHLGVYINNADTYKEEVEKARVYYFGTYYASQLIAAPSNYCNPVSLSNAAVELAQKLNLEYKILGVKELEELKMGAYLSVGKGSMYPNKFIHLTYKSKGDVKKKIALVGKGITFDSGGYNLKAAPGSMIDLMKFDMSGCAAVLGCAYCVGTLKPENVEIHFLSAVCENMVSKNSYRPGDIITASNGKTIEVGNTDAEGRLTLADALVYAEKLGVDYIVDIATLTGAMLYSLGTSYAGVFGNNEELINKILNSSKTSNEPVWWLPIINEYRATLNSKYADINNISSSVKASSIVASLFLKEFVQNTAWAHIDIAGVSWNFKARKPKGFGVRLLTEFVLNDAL

Aminopeptidase N = target: T3, Aminopeptidase N (Plasmodium falciparum FcB1/Columbia, UniProt O96935); assay: malaria alanyl aminopeptidase activity blockers – biochemical, fluorogenic H-Leu-NHMec substrate, 1536-well (AID 1445); design: species or system Plasmodium falciparum 3D7, 3D7
T3 sequence (O96935 whole entry): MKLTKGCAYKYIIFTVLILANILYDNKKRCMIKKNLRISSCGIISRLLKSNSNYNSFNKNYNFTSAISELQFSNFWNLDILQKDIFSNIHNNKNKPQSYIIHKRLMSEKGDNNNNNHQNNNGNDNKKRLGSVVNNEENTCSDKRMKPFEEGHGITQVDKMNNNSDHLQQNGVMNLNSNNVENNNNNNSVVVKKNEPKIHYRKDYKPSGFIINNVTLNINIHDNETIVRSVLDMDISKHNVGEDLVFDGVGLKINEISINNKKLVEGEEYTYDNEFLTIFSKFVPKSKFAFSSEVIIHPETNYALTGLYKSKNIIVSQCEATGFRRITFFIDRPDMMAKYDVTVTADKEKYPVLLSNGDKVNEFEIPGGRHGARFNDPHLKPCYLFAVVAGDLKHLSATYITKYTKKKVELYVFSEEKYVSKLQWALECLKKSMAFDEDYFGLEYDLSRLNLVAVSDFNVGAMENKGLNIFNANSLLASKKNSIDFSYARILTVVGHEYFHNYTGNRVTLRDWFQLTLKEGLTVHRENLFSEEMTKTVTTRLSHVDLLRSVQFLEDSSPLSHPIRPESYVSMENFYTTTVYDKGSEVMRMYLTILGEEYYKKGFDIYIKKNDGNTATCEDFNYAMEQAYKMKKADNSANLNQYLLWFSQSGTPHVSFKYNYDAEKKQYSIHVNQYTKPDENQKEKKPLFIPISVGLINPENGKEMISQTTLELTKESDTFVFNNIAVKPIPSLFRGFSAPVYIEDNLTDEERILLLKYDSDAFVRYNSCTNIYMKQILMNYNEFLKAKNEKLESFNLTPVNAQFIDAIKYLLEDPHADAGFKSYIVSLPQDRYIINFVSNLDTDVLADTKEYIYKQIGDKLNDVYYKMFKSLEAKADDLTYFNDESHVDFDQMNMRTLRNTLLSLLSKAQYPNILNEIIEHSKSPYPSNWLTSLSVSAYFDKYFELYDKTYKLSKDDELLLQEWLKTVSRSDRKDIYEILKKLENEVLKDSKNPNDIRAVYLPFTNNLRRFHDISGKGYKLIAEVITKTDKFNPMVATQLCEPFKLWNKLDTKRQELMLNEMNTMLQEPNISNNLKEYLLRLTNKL

[2] = target: Voltage-dependent T-type calcium channel subunit alpha-1H (Homo sapiens, UniProt O95180); format: functional;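 also: channel activity triggered by adding a high calcium stimulation buffer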
[3] = target: Melanin-concentrating hormone receptor 1 (Homo sapiens, UniProt Q99705); assay: Late-stage fluorescence-based counterscreen for antagonists of the G-protein coupled receptor 7 (GPR7): cell-based dose response assay to identify antagonists of the melanin-concentrating hormone receptor 1 (MCHR1). [Related pubchem assays (depositor defined):AID1861, AID1880, AID1952, AID2148, AID2251, AID2257, AID485339]; format: functional;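 also: stimulated with 30 nM MCH peptide agonist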
[4] = target: Peroxisome proliferator-activated receptor gamma/Nuclear receptor corepressor 2 (Homo sapiens, UniProt P37231+Q9Y618); format: functional
[5] = target: Photoreceptor-specific nuclear receptor (Homo sapiens, UniProt Q9Y5X4); format: functional;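 also: potency for compounds that break the NR2E3 corepressor complex and count as activators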
[6] = target: T4, Trace amine-associated receptor 1 (Homo sapiens, UniProt Q96RJ0); assay: Counterscreen for agonists of the human trace amine associated receptor 1 (hTAAR1): Fluorescence-based cell-based high throughput dose response assay to identify hTAAR1 agonist that also desensitize TAAR1 receptor response.; format: functional
T4 sequence (Q96RJ0 whole entry): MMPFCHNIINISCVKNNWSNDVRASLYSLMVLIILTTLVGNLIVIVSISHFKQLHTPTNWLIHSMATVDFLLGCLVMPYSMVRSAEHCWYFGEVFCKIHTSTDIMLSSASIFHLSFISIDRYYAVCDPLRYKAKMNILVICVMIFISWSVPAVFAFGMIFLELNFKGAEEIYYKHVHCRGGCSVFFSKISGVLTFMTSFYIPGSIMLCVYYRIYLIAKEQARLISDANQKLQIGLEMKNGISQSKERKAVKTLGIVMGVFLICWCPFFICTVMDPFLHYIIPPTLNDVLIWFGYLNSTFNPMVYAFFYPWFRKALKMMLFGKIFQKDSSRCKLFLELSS

cells [7] = format: functional, cell-based
cells [8] = format: functional, cell-based; remark: listed apart in the source
[9] = target: T4, Trace amine-associated receptor 1; assay: Fluorescence-based cell-based high throughput dose response assay to identify agonists of the human trace amine associated receptor 1 (TAAR1).; format: functional
SUMO-activating enzyme [10] = target: T5, SUMO-activating enzyme (Homo sapiens, UniProt Q9UBT2); assay: blockers of UBC9-mediated SUMO conjugation – biochemical, AlphaScreen, SUMOylation inhibitor project, confirmation (AID 2018); format: functional
SUMO-activating enzyme [11] = target: T5, SUMO-activating enzyme; assay: blockers of SAE1/SAE2–UBC9 SUMO transfer – biochemical, HTRF, uHTS, primary screen (AID 2006); format: protein-complex assay
[12] = target: T6, Calpain-2 catalytic subunit (Sus scrofa, UniProt P43367); assay: m-calpain protease blockers, concentration series – biochemical, fluorogenic peptide substrate, dose response (AID 1420); format: functional
T6 sequence (P43367 whole entry): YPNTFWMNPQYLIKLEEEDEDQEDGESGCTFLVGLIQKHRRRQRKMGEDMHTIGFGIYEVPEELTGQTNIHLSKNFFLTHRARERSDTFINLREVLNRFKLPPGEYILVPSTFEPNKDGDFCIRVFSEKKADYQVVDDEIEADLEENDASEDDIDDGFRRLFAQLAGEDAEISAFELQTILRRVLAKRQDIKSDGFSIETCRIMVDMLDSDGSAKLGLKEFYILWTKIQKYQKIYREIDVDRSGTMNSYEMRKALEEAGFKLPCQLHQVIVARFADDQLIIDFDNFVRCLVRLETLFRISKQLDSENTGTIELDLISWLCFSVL

[13] = target: T7, Zinc finger protein mex-5 (Caenorhabditis elegans, UniProt Q9XUB2); assay: potency of MEX-5 RNA-binding blockers – biochemical, C. elegans, fluorescence polarization, dose response (AID 1960)
T7 sequence (Q9XUB2 whole entry): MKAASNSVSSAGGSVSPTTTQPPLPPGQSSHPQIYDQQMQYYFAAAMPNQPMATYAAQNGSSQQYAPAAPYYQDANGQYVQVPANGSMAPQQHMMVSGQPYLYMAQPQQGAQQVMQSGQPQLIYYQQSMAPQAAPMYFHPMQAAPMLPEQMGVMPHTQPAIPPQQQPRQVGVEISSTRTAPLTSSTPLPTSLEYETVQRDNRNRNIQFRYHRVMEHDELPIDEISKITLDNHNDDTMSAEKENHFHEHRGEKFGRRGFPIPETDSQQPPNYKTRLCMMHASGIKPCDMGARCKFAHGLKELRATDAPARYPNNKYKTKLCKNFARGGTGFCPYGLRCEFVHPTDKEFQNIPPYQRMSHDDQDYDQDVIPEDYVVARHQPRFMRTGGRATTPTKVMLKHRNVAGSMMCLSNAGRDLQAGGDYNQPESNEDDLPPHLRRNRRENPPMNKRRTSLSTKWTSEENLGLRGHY

Genome polyprotein = Genome polyprotein (dengue virus type 2, UniProt P29990); assay: flavivirus cap methylation enzyme inhibition – biochemical, confirmation dose response, primary screen (AID 588689); format: functional
[14] = target: T8, RNA-binding protein pos-1 (Caenorhabditis elegans, UniProt G5EF15); assay: disruptors of C. elegans POS-1 RNA interaction – biochemical, fluorescence polarization, dose response (AID 1964);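 also: purified POS-1 fused to maltose binding protein made in E. coli; potency of compounds blocking POS-1 binding to fluorescent RNA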
T8 sequence (G5EF15 whole entry): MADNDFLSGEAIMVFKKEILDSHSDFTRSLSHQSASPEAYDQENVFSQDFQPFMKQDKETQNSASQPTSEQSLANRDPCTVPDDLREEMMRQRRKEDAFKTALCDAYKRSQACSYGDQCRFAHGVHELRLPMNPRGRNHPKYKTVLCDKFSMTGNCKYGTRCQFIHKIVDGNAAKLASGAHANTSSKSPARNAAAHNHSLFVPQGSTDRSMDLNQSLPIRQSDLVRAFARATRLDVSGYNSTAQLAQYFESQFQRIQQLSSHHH

Voltage-dependent T-type calcium channel subunit alpha-1H, sequence (O95180 whole entry): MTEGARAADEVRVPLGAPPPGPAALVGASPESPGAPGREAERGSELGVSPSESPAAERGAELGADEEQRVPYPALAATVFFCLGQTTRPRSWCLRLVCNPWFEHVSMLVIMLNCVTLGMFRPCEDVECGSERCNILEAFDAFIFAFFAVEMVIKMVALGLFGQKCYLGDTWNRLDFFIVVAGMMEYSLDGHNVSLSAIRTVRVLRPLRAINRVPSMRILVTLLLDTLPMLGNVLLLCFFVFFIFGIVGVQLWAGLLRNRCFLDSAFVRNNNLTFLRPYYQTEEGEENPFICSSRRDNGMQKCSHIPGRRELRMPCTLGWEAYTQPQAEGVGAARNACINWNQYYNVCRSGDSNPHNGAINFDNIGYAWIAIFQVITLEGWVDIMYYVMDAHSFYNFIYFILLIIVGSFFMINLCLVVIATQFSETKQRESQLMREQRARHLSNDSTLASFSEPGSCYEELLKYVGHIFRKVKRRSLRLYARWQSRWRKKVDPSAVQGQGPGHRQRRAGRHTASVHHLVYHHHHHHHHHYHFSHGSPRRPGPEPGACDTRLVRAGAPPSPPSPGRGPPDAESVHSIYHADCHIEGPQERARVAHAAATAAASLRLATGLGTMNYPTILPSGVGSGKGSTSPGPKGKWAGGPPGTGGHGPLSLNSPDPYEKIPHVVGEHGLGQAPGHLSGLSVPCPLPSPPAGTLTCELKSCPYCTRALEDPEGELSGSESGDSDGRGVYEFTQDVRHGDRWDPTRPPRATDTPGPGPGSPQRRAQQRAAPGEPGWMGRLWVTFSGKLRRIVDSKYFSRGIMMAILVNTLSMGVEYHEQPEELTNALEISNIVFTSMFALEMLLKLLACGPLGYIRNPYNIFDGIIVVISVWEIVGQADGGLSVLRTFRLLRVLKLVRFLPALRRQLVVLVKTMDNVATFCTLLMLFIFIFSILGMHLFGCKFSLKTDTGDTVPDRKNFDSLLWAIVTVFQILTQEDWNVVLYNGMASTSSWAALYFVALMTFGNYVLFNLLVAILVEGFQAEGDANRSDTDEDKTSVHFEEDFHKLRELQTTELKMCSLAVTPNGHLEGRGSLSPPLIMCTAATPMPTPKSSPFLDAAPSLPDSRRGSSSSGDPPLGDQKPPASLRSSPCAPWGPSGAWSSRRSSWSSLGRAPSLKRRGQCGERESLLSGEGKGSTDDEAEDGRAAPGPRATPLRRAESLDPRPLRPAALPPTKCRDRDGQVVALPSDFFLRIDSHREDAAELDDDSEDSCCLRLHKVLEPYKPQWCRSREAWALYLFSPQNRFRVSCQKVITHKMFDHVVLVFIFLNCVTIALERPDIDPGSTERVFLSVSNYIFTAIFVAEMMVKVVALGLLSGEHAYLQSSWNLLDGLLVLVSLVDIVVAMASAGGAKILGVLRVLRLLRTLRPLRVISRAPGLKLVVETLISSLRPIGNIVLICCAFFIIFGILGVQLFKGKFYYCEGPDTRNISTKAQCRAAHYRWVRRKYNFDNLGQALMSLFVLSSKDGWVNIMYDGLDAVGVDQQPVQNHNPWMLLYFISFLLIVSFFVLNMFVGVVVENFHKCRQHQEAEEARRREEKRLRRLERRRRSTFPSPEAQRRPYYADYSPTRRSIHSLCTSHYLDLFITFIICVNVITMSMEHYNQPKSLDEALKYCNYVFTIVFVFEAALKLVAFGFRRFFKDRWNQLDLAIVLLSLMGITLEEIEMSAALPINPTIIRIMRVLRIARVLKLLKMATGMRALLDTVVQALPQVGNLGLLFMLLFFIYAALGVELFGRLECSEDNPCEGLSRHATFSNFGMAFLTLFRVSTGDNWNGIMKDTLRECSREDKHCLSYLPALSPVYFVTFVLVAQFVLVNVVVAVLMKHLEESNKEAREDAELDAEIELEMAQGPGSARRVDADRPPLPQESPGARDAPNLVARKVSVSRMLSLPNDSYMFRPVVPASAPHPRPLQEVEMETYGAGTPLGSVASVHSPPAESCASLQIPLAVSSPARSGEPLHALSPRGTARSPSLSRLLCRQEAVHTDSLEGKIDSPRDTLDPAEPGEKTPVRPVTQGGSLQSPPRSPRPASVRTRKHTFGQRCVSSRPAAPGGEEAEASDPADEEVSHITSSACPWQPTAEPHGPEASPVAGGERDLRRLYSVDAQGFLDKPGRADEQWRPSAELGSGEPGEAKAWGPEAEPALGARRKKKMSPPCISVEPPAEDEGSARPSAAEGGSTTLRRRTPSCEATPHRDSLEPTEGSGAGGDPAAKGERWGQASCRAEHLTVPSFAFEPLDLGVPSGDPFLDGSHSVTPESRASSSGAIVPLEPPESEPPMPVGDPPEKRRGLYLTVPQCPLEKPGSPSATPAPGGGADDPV
Photoreceptor-specific nuclear receptor, sequence (Q9Y5X4 whole entry): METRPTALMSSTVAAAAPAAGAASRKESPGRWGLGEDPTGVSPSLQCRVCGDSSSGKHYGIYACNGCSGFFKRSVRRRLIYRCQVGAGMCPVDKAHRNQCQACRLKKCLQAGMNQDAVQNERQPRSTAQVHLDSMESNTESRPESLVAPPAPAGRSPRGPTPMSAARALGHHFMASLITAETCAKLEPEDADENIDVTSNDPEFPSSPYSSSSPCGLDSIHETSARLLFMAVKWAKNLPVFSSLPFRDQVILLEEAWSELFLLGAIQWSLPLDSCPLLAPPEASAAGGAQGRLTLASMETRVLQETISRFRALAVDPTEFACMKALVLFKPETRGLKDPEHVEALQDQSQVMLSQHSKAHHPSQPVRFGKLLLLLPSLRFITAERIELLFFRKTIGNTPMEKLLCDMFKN
Melanin-concentrating hormone receptor 1, sequence (Q99705 whole entry): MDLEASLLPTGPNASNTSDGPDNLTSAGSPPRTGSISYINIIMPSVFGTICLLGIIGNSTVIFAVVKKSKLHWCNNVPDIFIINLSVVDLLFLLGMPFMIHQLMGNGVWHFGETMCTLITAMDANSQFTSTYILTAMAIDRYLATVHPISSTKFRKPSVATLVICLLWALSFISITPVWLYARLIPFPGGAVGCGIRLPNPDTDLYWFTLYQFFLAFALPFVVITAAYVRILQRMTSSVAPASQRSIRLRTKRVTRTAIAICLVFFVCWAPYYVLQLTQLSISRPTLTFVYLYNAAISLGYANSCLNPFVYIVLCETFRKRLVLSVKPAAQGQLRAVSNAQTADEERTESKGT
T5 sequence (Q9UBE0 whole entry): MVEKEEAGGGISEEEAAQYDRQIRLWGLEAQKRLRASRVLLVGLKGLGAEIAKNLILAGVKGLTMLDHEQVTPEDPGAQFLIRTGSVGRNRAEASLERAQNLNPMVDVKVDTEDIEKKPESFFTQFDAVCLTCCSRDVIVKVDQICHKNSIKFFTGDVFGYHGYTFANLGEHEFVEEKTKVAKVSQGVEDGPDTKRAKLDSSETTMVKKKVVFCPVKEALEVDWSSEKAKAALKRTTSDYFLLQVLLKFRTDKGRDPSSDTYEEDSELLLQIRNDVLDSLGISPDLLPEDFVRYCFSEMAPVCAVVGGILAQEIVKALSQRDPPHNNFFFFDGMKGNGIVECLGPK
T5 sequence (Q9UBT2 whole entry): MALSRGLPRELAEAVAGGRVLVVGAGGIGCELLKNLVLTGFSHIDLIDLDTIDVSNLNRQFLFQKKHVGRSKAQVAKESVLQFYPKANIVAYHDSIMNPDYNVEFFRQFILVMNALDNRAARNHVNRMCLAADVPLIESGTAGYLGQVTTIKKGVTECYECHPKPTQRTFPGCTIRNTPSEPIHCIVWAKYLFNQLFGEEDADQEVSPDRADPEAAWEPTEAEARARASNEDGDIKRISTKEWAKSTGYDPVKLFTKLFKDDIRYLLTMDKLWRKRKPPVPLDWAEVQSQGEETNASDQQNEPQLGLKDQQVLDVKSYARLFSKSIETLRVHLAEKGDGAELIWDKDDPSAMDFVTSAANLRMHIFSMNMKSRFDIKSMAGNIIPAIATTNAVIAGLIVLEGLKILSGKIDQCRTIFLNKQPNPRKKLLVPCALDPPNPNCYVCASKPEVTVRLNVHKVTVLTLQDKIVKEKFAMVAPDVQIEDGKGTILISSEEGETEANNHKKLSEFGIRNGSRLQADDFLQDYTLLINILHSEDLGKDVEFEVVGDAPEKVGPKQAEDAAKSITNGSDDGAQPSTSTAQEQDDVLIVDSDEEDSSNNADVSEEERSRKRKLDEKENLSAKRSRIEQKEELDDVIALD
Genome polyprotein, sequence (P29990 2492-3391 limits assumed): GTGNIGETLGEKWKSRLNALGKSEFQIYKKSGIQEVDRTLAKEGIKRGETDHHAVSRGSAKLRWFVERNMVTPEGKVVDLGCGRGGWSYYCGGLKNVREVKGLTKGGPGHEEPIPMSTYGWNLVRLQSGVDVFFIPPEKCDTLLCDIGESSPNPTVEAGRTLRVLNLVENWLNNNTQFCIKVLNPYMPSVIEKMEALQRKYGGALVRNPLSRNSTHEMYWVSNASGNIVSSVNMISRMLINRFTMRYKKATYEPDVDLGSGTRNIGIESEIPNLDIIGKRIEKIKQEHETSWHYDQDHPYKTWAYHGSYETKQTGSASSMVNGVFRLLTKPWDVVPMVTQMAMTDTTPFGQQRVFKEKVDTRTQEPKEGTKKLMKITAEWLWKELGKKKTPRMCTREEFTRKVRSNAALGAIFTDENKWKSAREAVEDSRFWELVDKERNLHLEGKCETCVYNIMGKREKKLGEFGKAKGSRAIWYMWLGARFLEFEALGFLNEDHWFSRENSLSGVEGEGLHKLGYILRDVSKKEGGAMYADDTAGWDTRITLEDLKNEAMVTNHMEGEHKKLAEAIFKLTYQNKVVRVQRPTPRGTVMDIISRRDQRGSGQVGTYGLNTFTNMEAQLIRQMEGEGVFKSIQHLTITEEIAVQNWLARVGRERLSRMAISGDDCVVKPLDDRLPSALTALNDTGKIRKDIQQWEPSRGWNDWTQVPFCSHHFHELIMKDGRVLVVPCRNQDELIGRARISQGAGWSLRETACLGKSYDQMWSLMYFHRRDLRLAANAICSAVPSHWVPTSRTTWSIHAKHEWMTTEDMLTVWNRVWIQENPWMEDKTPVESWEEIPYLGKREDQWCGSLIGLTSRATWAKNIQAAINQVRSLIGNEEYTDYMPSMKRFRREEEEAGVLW

## O=C(Nc1ccccc1Oc1cccnc1)C1CCCN(Cc2cccc(Cl)c2)C1 (stereo not given)
[1]
  EC50: 3.76 µM (active)

## O=C(CSc1n[nH]c2c3ccccc3nc-2n1)Nc1ccc(S(=O)(=O)Nc2ncccn2)cc1
Leucine aminopeptidase
  IC50: 28.3 µM (active)
Aminopeptidase N
  IC50: 61.6 µM (active)

## COc1ccccc1N1CCN(CC(=O)Nc2ccc(Cl)c(C(F)(F)F)c2)CC1
[2]
  EC50: 4.08 µM (active)

## CCc1cnn(-c2ccc(C(C)C)cc2)c(=O)c1Oc1ccc(OC)cc1
[3]
  IC50: 12.8 µM (inactive)

## COc1ccc(NC(=O)[C@@H](NC(=O)c2ccccc2)C(C)C)cc1S(=O)(=O)N1CCCCC1
Aminopeptidase N
  IC50: 39 µM (active)

## CC1NC(=O)NC1CCCCCC(=O)NCCc1ccccc1 (stereo not given)
[4]
  IC50: 3.01 µM (active)
[5]
  IC50: 1.06 µM (active)
[6]
  IC50: 6.36 µM (active)
Cells [7]
  IC50: > 29.9 µM (inactive)
Cells [8]
  EC50: > 29.9 µM (inactive)
[9]
  EC50: 1.93 µM (active)

## O=c1c(C(c2ccccc2)c2c(O)sc3ccccc3c2=O)c(O)sc2ccccc12
SUMO-activating enzyme [10]
  IC50: 4.11 µM (active)
SUMO-activating enzyme [11]
  IC50: 11.3 µM (active)
[12]
  IC50: 4.29 µM (not active)

## Cc1ccc(N2CCN(C(=O)c3ccccc3F)CC2)c(C)c1
[1]
  EC50: 5.96 µM (active)

## CC(C)N(Cc1nc(-c2ccc(Cl)cc2)no1)C(=O)CCCN1C(=O)c2ccccc2C1=O
[2]
  EC50: 3.89 µM (active)

## COC(=O)c1c(Cl)c2n3ccccc3c(C)c(-c3ccccc3)c-2c1C(=O)OC
[4]
  IC50: 0.0555 µM (active)
[13]
  EC50: 25.8 µM (active)
[5]
  IC50: 0.303 µM (active)
Genome polyprotein
  IC50: 74.5 µM (active)
[14]
  EC50: 47.5 µM (active)

## O=C(Cc1ccccc1F)Nc1nc(-c2cccs2)cs1
[2]
  EC50: 1.98 µM (active)

## COc1ccc(Oc2c(C3CC3)cnn(-c3ccc(C)cc3)c2=O)cc1
[3]
  IC50: 5.4 µM (active)

## O=C(Nc1ccc2c(c1)OCO2)C1CCN(S(=O)(=O)c2ccc3c(c2)OCCO3)CC1
Aminopeptidase N
  IC50: 45.7 µM (active)
